Read-outs that look alike come from different tables or passages of the source.
Tests used:
rNT-R2 receptor [1] = target: T1, rNT-R2 receptor (Rattus norvegicus, UniProt Q63384); test: displacement of ^125 I-neurotensin from rNT-R2 expressed in COS cells; assay type: binding
T1 construct: rNT-R2 receptor expressed in COS-3 cells after transfection of the cloned cDNA; expressed in transfected cells; vector pSVL-rNT-R2
T1 sequence (Q63384 1-416): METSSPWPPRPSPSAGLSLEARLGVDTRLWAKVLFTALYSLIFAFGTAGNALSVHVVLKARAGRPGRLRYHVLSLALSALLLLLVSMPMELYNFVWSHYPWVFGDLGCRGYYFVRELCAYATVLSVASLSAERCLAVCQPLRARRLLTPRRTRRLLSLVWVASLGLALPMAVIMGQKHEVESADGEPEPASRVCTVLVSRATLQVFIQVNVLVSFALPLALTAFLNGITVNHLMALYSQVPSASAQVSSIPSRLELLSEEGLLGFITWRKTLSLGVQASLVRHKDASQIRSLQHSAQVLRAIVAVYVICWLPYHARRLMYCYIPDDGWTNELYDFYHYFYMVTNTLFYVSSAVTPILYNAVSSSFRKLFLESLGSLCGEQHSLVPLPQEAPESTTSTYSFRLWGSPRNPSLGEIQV
Experimental: BSA (bovine serum albumin), PMSF (phenylmethylsulphonyl fluoride) and 1,10-phenanthroline are marketed by Sigma. […] Levocabastine was obtained from Janssen Pharmaceutica.
(§1) The pharmacological characterization was carried out using […] cells transfected with pSVL-rNT-R2 recombinant vector. Three days after transfection, the cell monolayers were washed twice with 50 mM Tris-HCl pH 7.5, 0.1% BSA, 0.1% NaN3, 1 mM 1,10-phenanthroline (binding buffer) before binding to the radioligand.
After incubation for one hour at room temperature, the medium was aspirated and the cell monolayers were washed twice with the incubation buffer. Finally, the cells were solubilized with 1 ml of 1N NaOH and the bound radioactivity was evaluated.

HT29 cells = conditions: antagonism of neurotensin effect in vitro, read-out: IC50, formation of IP1 in HT29 cells; cited from earlier work
NT-1R = conditions: CHO cells transfected with NT-1R; cited from earlier work
type-1 receptor = conditions: cited from earlier work
[2] = test system: hypothermia induced by NT; conditions: mice; cited from earlier work
[3] = test system: hypothermia induced by NT; conditions: rats; cited from earlier work
analgesia induced by NT [4] = conditions: mice; cited from earlier work
analgesia induced by NT [5] = conditions: rats; cited from earlier work
[6] = test system: release of acetylcholine in rat striatum; conditions: cited from earlier work
rotation in mice = conditions: cited from earlier work
hNT-R2 [7] = target: T2, hNT-R2 (Homo sapiens, UniProt O95665); test: microphysiometry (Cytosensor) with CHO 2076.62 (hNT-R2) cells; assay type: cell-based
Experimental: The microphysiometry experiments were carried out with the Cytosensor Microphysiometer (Molecular Devices, Menlo Park, Calif.). Each chamber of the instrument containing 3×10^5 cells was perfused with DMEM medium (Sigma, St. Louis, Mo.) containing 40 mM NaCl at 37° C. The rate of acidification was measured every 60 seconds (flowrate […]). 15-second injections of agonists were carried out. For the inhibition experiments, cells were exposed to the antagonists for 30 minutes before being perfused with the agonist.

hNT-R2 [8] = target: T2, hNT-R2; test: intracellular Ca^2+ concentration in CHO-2076.62 (hNT-R2) line; assay type: cell-based; conditions: same response in the absence of extracellular calcium
Excerpt: In principle, this increase in the concentration of intracellular calcium ions is due to the release of internal reservoirs and not to the influx of extracellular calcium since the same response was found in the absence of extracellular calcium.

cloned receptor = conditions: cited from earlier work
rNT-R2 receptor [9] = target: T1, rNT-R2 receptor; test: saturation binding of ^125 I-neurotensin to rNT-R2 expressed in COS cells; conditions: Scatchard analysis
Experimental: BSA (bovine serum albumin), PMSF (phenylmethylsulphonyl fluoride) and 1,10-phenanthroline are marketed by Sigma. The selective, non-peptide antagonist SR 48692 was synthesized by Sanofi Recherche, France. Levocabastine was obtained from Janssen Pharmaceutica.
as §1
Saturation experiments were carried out in 1 ml of binding buffer containing ^125 I-neurotensin over a range from 0.05 to 14.5 nM. After incubation for one hour at room temperature, the medium was aspirated and the cell monolayers were washed twice with the incubation buffer. Finally, the cells were solubilized with 1 ml of 1N NaOH and the bound radioactivity was evaluated. The non-specific binding was defined as being the binding in the presence of a (500-fold) excess of unlabelled ligand and, under these conditions, was less than 1% of the total radioactivity.

[10] = test system: untransfected cells, or cells transfected with the DNA vector alone; test: binding of radiolabelled neurotensin to untransfected or vector-transfected COS cells
hNT-R2 [11] = target: T2, hNT-R2; test: inositol phosphate (IP3) production in CHO-2076.62 (hNT-R2) line; assay type: cell-based
Excerpt: The CHO-2076.62 (hNT-R2) line was used to study the signalization mechanisms involved.

[12] = 0.2 nM ^125 I-neurotensin, rNT-R2 in COS cells, read-out: IC50 (apparent), competition with ^125 I-neurotensin
[13] = binding with the type-1 receptor

T2 sequence (O95665 whole entry A54V, the tested form may be a part): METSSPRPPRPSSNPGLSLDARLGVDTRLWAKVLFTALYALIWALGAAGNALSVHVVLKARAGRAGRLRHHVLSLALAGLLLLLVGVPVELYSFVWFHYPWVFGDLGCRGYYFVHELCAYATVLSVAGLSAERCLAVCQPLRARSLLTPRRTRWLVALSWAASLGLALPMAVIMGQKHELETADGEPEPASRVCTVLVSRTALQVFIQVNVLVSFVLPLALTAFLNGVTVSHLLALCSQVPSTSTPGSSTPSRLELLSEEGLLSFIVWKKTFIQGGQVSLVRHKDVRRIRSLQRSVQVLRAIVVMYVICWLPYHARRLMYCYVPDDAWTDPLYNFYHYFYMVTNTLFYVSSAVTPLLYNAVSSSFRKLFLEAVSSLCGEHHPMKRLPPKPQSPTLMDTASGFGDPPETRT

For “neuromedin N: ligand related to neurotensin, used as competitor (IPYIL; Neuromedin N; UniProt P30990 144-148, looked up)”, the IC50 (rNT-R2 receptor [1]; [12]) was 5.1 nM.

In the case of `COc1cccc(OC)c1-c1cc(C(=O)NC2(C(=O)O)C3CC4CC(C3)CC2C4)nn1-c1ccc(C(=O)N(C)CCCN(C)C)cc1C(C)C.Cl` (centres unmarked) [SR 142948 A, 2-{(5-(2,6-dimethoxyphenyl)-1-(4-(N-(3-dimethylamino-propyl)-N-methylcarbamoyl)-2-isopropylphenyl)-1H-pyrazole-3-carbonyl)amino}adamantane-2-carboxylic acid hydrochloride], the IC50 (HT29 cells) is listed as 3.9 nM, the “antagonism of neurotensin mobilization of intracellular calcium ions” value (NT-1R) is listed as “antagonizes” and the “displacement of [^3 H]-SR 48692” value (type-1 receptor; [13]) is listed as “completely displaces”. For the same compound, the “displacement of [^125 I]-neurotensin” value (type-1 receptor; [13]) was “completely displaces”, the affinity (type-1 receptor; type-1 receptor (Gully et al.)) was “of the order of a nanomole” and the “effect on hypothermia induced by NT” value [2] was “antagonizes”. The “effect on hypothermia induced by NT” value [3] was “antagonizes”, the “effect on analgesia induced by NT” value (analgesia induced by NT [4]) was “antagonizes” and the “effect on analgesia induced by NT” value (analgesia induced by NT [5]) was “antagonizes”. For the same compound, the “antagonism of neurotensin effect: release of acetylcholine” value [6] was “antagonizes” and the “antagonism of neurotensin effect: rotation” value (rotation in mice) was “antagonizes”.

In the case of `COc1cccc(OC)c1-c1cc(C(=O)NC2(C(=O)O)C3CC4CC(C3)CC2C4)nn1-c1ccnc2cc(Cl)ccc12` (centres unmarked) [SR 48692, {2-[(1-(7-chloro-4-quinolinyl)-5-(2,6-di-methoxyphenyl)pyrazol-3-yl)carbonylamino]tricyclo-(3.3.1.1.3.7)decane-2-carboxylic} acid], the IC50 (rNT-R2 receptor [1]; [12]) is reported as 22.5 nM, the “inhibition of the agonist effect of SR142948” value (hNT-R2 [7]; CHO 2076.62 (hNT-R2), SR48692 at doses at which there is no agonist effect) is reported as “antagonized” and the “relative effectiveness at inhibiting the effect of SR142948” value (hNT-R2 [7]; inhibition curves, SR48692 versus neurotensin) is reported as “more effective than neurotensin”. For the same compound, the “intracellular concentration of Ca^2+ response” value (hNT-R2 [8]) was “significant response”, the “inhibition of the binding of NT to the cloned receptor” value (cloned receptor) was “inhibits the binding of NT to the cloned receptor” and the “effect on hypothermia induced by NT” value [2] was “insensitive”. For the same compound, the “effect on hypothermia induced by NT” value [3] was “insensitive”, the “effect on analgesia induced by NT” value (analgesia induced by NT [4]) was “insensitive” and the “effect on analgesia induced by NT” value (analgesia induced by NT [5]) was “insensitive”.

In the case of `C[C@@H]1CN([C@H]2CC[C@](C#N)(c3ccc(F)cc3)CC2)CC[C@]1(C(=O)O)c1ccccc1` [levocabastine], the IC50 (rNT-R2 receptor [1]) is reported as 10 nM.

With “^125 I-neurotensin: ^125 I-[Tyr^3 ]-labelled neurotensin marketed by NEN” the “binding capacity (Bmax)” value (rNT-R2 receptor [9]) was 180,000±3000 sites per cell and the “binding to untransfected cells or cells transfected with vector alone” value [10] was “did not bind”.

With `COc1cccc(OC)c1-c1cc(C(=O)NC2(C(=O)O)C3CC4CC(C3)CC2C4)nn1-c1ccc(C(=O)N(C)CCCN(C)C)cc1C(C)C` (centres unmarked) [SR142948] the “increase in IP3” value (hNT-R2 [11]) was “slight and transient (20-second) increase” and the “intracellular concentration of Ca^2+ response” value (hNT-R2 [8]) was “significant response”.

Source: patent publication US6274333A (Sanofi-Synthelabo, priority 1997, dated 2001)
